Measured values taken from patent US10934300B2, “Atropisomerism for enhanced kinase inhibitor selectivity” (San Diego State University Foundation, priority 2017, dated 2021).

Key:
Kit = Kit (Homo sapiens, UniProt P10721); assay: Z'-LYTE kinase inhibition, Kit
[1] = tested on: panel of tyrosine kinases; assay: Kinase inhibitor profiling across a panel of tyrosine kinases, selectivity score; assay type: biochemical
Procedure: To analyze each analog's selectivity across the panel, selectivity scores were used (Davis et al., Nat. Biotechnol. 2011, 29, 1046-51), which are simply the number of kinases inhibited above a certain threshold divided by the number of kinases evaluated. […] For example at 1000 nM 2e-(R) yielded an S(40%) of 0.11 while 2e-(S) gave an S(40%) of 0.16. […] Differences in selectivity between 2e-(R) and 2e-(S) at 5000 nM (4.5 times the IC50 of 2e-(S) toward Src) and for 5 at 1000 nM (6.25 times the IC50 of 5 toward Src) can be viewed graphically across tyrosine kinases (FIG. 3). Importantly, similar trends were also observed across each of the atropisomeric series tested.
All samples were sent out to Life Technologies to obtain kinase inhibition data. A brief description of the assays and analyses are included below.
Assay Theory (SelectScreen® Kinase Profiling Services (Life Technologies, Madison, Wis. USA). The Z′-LYTE® biochemical assay employs a fluorescence-based, coupled-enzyme format and is based on the differential sensitivity of phosphorylated and non-phosphorylated peptides to proteolytic cleavage. The peptide substrate is labeled with two fluorophores—one at each end—that make up a FRET pair.
In the primary reaction, the kinase transfers the gamma-phosphate of ATP to a single tyrosine, serine or threonine residue in a synthetic FRET-peptide. In the secondary reaction, a site-specific protease recognizes and cleaves non-phosphorylated FRET-peptides. Phosphorylation of FRET-peptides suppresses cleavage by the Development Reagent. Cleavage disrupts FRET between the donor (i.e., coumarin) and acceptor (i.e., fluorescein) fluorophores on the FRET-peptide, whereas uncleaved, phosphorylated FRET-peptides maintain FRET. A ratiometric method, which calculates the ratio (the Emission Ratio) of donor emission to acceptor emission after excitation of the donor fluorophore at 400 nm, is used to quantitate reaction progress, as shown in the equation below: […]
A significant benefit of this ratiometric method for quantitating reaction progress is the elimination of well-to-well variations in FRET-peptide concentration and signal intensities. […] Both cleaved and uncleaved FRET-peptides contribute to the fluorescence signals and therefore to the Emission Ratio. The extent of phosphorylation of the FRET-peptide can be calculated from the Emission Ratio. The Emission Ratio will remain low 1f the FRET-peptide is phosphorylated (i.e., no kinase inhibition) and will be high if the FRET-peptide is non-phosphorylated (i.e., kinase inhibition).
Both cleaved and uncleaved FRET-peptides contribute to the fluorescence signals and therefore to the Emission Ratio. The extent of phosphorylation of the FRET-peptide can be calculated from the Emission Ratio. The Emission Ratio will remain low if the FRET-peptide is phosphorylated (i.e., no kinase inhibition) and will be high if the FRET-peptide is non-phosphorylated (i.e., kinase inhibition).

Lyn = Lyn (Homo sapiens, UniProt P07948); assay: Z'-LYTE kinase inhibition, Lyn
Lyn, sequence (P07948 whole entry): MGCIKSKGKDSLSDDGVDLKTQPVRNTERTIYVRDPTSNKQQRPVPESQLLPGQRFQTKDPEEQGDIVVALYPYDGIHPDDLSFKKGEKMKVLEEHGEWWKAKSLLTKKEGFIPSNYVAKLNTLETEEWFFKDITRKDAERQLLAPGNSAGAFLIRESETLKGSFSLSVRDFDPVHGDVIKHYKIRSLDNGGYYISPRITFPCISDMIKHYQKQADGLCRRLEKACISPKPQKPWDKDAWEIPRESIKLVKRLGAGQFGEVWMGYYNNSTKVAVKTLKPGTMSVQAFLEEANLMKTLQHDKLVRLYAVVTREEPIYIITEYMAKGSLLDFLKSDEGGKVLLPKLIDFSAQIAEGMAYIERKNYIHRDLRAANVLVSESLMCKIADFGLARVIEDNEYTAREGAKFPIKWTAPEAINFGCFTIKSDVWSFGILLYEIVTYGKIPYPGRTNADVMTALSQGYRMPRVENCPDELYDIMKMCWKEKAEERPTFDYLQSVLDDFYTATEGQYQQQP

Alk = Alk (Homo sapiens, UniProt Q9UM73); assay: Z'-LYTE kinase inhibition, Alk
pdgfr-a = pdgfr-a (Homo sapiens, UniProt P16234); assay: Z'-LYTE kinase inhibition, pdgfr-a
pdgfr-a, sequence (P16234 24-1089): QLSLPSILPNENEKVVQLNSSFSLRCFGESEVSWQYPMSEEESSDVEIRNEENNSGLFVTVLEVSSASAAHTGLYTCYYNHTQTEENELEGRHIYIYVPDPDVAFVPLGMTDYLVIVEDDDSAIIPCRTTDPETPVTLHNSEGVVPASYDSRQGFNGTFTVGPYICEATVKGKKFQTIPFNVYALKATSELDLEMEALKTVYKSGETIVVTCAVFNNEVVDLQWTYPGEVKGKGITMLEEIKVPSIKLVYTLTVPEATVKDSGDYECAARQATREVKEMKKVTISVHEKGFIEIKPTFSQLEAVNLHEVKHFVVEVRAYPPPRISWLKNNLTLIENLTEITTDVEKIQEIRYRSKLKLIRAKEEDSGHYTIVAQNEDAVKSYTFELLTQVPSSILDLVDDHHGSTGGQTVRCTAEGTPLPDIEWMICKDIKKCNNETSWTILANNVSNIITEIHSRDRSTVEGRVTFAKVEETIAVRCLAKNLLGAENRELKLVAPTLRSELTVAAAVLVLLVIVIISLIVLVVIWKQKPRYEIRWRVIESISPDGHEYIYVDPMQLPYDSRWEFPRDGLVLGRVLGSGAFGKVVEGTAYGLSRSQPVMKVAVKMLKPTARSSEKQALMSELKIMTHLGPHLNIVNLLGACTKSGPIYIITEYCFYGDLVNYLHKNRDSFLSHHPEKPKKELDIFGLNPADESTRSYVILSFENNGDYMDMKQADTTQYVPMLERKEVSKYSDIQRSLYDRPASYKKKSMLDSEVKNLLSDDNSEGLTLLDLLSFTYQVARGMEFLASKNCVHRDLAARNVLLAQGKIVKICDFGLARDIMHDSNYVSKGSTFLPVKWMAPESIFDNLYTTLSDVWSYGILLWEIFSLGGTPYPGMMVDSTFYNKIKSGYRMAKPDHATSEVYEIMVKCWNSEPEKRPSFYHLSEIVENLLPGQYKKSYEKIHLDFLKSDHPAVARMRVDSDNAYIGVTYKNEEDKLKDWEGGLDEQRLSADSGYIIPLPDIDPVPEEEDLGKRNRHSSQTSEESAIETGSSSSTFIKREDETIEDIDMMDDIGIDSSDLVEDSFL

Fgr = Fgr (Homo sapiens, UniProt P09769); assay: Z'-LYTE kinase inhibition, Fgr
Hck = Hck (Homo sapiens, UniProt P08631); assay: Z'-LYTE kinase inhibition, Hck
Hck, sequence (P08631 whole entry): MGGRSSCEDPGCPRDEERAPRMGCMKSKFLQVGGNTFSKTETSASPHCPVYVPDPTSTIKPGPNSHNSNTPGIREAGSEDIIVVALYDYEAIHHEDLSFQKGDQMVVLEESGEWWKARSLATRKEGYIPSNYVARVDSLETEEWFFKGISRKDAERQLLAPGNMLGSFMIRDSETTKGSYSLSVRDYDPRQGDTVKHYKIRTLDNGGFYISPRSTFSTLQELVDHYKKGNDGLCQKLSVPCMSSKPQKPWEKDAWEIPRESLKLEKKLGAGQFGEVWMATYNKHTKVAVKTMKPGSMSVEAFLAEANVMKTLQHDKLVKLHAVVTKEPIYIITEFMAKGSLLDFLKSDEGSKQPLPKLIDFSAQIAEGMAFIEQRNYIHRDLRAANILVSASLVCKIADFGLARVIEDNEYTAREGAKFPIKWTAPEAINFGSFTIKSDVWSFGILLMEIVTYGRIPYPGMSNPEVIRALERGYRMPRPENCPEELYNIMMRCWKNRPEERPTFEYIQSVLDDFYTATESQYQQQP

Yes = Yes (Homo sapiens, UniProt P07947); assay: Z'-LYTE kinase inhibition, Yes
Yes, sequence (P07947 whole entry): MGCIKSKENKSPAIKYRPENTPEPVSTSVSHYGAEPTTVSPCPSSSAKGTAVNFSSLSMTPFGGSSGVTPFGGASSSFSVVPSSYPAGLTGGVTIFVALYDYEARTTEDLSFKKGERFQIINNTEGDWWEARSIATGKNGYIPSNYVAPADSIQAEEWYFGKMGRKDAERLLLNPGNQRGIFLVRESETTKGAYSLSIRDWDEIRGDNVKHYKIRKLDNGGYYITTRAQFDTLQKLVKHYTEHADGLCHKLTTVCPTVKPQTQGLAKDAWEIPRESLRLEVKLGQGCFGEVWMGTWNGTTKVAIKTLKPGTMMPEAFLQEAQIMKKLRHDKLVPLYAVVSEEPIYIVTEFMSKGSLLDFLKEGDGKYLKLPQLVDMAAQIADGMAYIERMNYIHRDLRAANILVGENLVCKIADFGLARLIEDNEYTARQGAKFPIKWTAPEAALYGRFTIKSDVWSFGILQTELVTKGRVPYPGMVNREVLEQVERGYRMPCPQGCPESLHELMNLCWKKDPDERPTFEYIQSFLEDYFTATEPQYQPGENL

Src kinase = Src kinase (Homo sapiens, UniProt P12931); assay: Z'-LYTE kinase inhibition, Src; details: Src relative to Yes
Lck = Lck (Homo sapiens, UniProt P06239); assay: Z'-LYTE kinase inhibition, Lck
Ret kinase = Ret kinase (Homo sapiens, UniProt P07949); assay: Z'-LYTE kinase inhibition, Ret
Ret kinase, sequence (P07949 29-1114): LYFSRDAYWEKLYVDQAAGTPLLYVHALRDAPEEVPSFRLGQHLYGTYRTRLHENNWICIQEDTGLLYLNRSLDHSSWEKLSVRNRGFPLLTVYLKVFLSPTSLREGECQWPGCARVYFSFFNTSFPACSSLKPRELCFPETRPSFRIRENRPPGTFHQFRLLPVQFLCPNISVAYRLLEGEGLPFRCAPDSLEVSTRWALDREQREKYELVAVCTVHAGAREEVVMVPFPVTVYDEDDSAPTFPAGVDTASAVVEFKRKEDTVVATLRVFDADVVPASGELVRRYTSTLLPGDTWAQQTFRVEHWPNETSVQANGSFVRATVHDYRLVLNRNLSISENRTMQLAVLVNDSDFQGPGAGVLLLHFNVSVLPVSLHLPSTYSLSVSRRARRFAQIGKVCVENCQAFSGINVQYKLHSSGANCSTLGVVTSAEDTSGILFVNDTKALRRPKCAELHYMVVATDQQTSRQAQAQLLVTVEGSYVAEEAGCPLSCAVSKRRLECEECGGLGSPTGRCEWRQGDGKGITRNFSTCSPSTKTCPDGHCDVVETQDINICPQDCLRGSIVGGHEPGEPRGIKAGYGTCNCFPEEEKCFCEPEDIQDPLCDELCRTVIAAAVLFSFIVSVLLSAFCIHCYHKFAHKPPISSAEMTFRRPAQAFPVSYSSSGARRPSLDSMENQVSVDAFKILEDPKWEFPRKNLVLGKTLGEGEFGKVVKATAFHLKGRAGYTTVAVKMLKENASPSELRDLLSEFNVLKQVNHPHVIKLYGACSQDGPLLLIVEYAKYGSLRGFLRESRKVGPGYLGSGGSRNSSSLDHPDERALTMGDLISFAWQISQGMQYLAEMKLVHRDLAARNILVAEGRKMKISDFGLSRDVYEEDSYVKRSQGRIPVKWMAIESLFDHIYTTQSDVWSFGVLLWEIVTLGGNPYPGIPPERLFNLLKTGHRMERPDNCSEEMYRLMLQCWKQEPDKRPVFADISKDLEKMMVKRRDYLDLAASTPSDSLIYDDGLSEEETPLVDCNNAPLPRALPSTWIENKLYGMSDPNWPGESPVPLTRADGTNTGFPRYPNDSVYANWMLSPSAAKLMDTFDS

pdgfr-b = pdgfr-b (Homo sapiens, UniProt P09619); assay: Z'-LYTE kinase inhibition, pdgfr-b
Abl = Abl (Homo sapiens, UniProt P00519); assay: Z'-LYTE kinase inhibition, Abl
Abl, sequence (P00519 whole entry): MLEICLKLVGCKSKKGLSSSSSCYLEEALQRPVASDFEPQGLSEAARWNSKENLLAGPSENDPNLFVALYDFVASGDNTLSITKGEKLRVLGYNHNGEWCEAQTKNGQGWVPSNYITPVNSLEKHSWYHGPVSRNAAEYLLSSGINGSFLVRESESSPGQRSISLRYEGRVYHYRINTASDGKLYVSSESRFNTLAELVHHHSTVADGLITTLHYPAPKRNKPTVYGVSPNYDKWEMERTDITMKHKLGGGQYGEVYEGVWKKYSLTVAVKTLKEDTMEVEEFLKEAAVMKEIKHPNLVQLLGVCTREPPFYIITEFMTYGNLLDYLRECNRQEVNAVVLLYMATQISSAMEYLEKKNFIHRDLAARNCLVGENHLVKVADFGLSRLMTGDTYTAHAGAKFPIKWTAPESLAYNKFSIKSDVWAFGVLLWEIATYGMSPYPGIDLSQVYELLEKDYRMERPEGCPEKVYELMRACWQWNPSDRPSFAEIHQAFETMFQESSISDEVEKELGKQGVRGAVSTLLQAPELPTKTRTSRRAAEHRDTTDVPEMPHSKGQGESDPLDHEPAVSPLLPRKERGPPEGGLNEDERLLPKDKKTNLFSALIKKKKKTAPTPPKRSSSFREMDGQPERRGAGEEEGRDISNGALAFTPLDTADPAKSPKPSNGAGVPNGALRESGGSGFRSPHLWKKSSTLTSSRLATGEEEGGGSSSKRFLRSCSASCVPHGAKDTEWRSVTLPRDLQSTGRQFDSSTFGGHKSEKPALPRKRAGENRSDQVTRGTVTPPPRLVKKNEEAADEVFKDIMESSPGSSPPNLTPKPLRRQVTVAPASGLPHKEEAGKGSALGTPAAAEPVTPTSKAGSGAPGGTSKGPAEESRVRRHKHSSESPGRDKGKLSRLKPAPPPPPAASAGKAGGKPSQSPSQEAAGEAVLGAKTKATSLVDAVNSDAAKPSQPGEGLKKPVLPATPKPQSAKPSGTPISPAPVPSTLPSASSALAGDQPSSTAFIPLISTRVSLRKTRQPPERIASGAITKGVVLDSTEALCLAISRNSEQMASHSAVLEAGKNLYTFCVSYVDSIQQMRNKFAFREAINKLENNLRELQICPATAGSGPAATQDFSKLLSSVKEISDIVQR

Blk = Blk (Homo sapiens, UniProt P51451); assay: Z'-LYTE kinase inhibition, Blk
CSK = CSK (Homo sapiens, UniProt P41240); assay: Z'-LYTE kinase inhibition, CSK
Fyn = Fyn (Homo sapiens, UniProt P06241); assay: Z'-LYTE kinase inhibition, Fyn
BTK = BTK (Homo sapiens, UniProt Q06187); assay: Z'-LYTE kinase inhibition, BTK
EGFR = EGFR (Homo sapiens, UniProt P00533); assay: Z'-LYTE kinase inhibition, EGFR; details: EGFR relative to Yes

S/R (5000 nM): % inhibition 2e-(S) / % inhibition 2e-(R) (Kit): 1.38
S(40%): number of kinases inhibited greater than 40% divided by number of kinases tested (including Src) ([1]; 1000 nM): 0.16
S(40%): number of kinases inhibited greater than 40% divided by number of kinases tested (including Src) ([1]; 5000 nM): 0.61
Inhibited % (n/18) of tyrosine kinases ([1]; share of the 18 tyrosine kinases inhibited, concentration not printed in Table 3): (S): Inhibited 16% (3/18)
S/R (5000 nM): % inhibition 2e-(S) / % inhibition 2e-(R) (Lyn): 1.31
S/R (5000 nM): % inhibition 2e-(S) / % inhibition 2e-(R) (Alk): 0.38
S/R (5000 nM): % inhibition 2e-(S) / % inhibition 2e-(R) (pdgfr-a): 1.63
S/R (5000 nM): % inhibition 2e-(S) / % inhibition 2e-(R) (Fgr): 1.05
S/R (5000 nM): % inhibition 2e-(S) / % inhibition 2e-(R) (Hck): 1.25
IC50 of compound Kinase/IC50 of compound Yes (Yes; Yes relative to Yes): 1
S/R (5000 nM): % inhibition 2e-(S) / % inhibition 2e-(R) (Yes; Yes, 5000 nM): 0.97
IC50 of compound Kinase/IC50 of compound Yes (Src kinase): 1.64
S/R (5000 nM): % inhibition 2e-(S) / % inhibition 2e-(R) (Lck): 1.05
IC50 of compound Kinase/IC50 of compound Yes (Ret kinase; Ret relative to Yes): 10.53
augmentation/increase of 5's inherent selectivity (Ret kinase; Ret versus Abl and Src, listed as 2e-(5)): ~8 fold
S/R (5000 nM): % inhibition 2e-(S) / % inhibition 2e-(R) (Ret kinase; Ret, 5000 nM): 0.44
S/R (5000 nM): % inhibition 2e-(S) / % inhibition 2e-(R) (pdgfr-b): 1.23
IC50 of compound Kinase/IC50 of compound Yes (Abl; Abl relative to Yes): 1.96
S/R (5000 nM): % inhibition 2e-(S) / % inhibition 2e-(R) (Abl; Abl, 5000 nM): 2.57
S/R (5000 nM): % inhibition 2e-(S) / % inhibition 2e-(R) (Blk): 1.46
S/R (5000 nM): % inhibition 2e-(S) / % inhibition 2e-(R) (CSK): 1.28
S/R (5000 nM): % inhibition 2e-(S) / % inhibition 2e-(R) (Fyn): 1.27
S/R (5000 nM): % inhibition 2e-(S) / % inhibition 2e-(R) (BTK): 1.86
IC50 of compound Kinase/IC50 of compound Yes (EGFR): >10.0
SMILES: COc1ccc(Cl)c(-c2c(Cl)n(C(C)(C)C)c3ncnc(N)c23)c1 (single isomer, unassigned) [2e-(S), 7-(tert-butyl)-6-chloro-5-(2-chloro-5-methoxyphenyl)-7H-pyrrolo[2,3-d]pyrimidin-4-amine]
